In the supplement of paper PMC11451515:

Tests used:
Settings in all cases: 48 h
NOMO1 [1] = test: cell viability relative to DMSO control; higher = less cytotoxic
Summary of the method: (§1)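 Library compounds in DMSO were pin-dosed in an 11-point threefold series (47 μM to 0.79 nM) onto leukemia cells in 1536-well plates (5 μl). Plates held 500 cells/well of NOMO1 or SEM or 1000 cells/well of P12-Ichikawa, each adapted for at least four passages in each medium. Luminescence was read with CellTiter-Glo One after 48 h at 37°C. Viability means the per-plate percentage relative to DMSO wells, using cell-free wells as background.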

P12-Ichikawa [2] = test: as above
Summary of the method: as §1

SEM cells [3] = test: as above
Summary of the method: as §1

NOMO1 [4] = test: AUC of viability dose-response curve (% viability x log10 dose units); higher = less sensitive
Summary of the method: (§2)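 Leukemia cells adapted to each medium (500 or 1000 cells/well, 1536-well plates) were exposed to library compounds in DMSO for 48 h at 37°C at 11 threefold doses, 47 μM to 0.79 nM. Luminescence by CellTiter-Glo One was normalised per plate to DMSO and cell-free wells, then fitted with a four-parameter log-logistic curve on log10 dose. Curves above full viability were scaled and quality-control failures removed before area under the curve was integrated by trapezoidal rule.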

P12-Ichikawa [5] = test: as above
Summary of the method: as §2

SEM cells [6] = test: as above
Summary of the method: as §2

CCCCCCCCCCCCCCCCCCOP(=O)([O-])OC1CC[N+](C)(C)CC1
cell viability [%]
Settings | NOMO1 [1] | P12-Ichikawa [2] | SEM cells [3]
HPLM + 10% dialyzed FBS, 0.000781 µM | 93.4 | 112 | 82.4
HPLM + 10% dialyzed FBS, 0.00234 µM | 114 | 111 | 112
HPLM + 10% dialyzed FBS, 0.00702 µM | 94.8 | 114 | 97.5
HPLM + 10% dialyzed FBS, 0.0211 µM | 114 | 113 | 88.7
HPLM + 10% dialyzed FBS, 0.0632 µM | 110 | 111 | 103
HPLM + 10% dialyzed FBS, 0.19 µM | 120 | 109 | 101
HPLM + 10% dialyzed FBS, 0.569 µM | 114 | 121 | 109
HPLM + 10% dialyzed FBS, 1.71 µM | 107 | 114 | 106
HPLM + 10% dialyzed FBS, 5.12 µM | 107 | 106 | 87.4
HPLM + 10% dialyzed FBS, 15.4 µM | 98.4 | 104 | 82.4
HPLM + 10% dialyzed FBS, 46.1 µM | 99 | 112 | 73.8
RPMI 5 mM glucose + 10% FBS, 0.000781 µM | 90.5 | 104 | 91.9
RPMI 5 mM glucose + 10% FBS, 0.00234 µM | 105 | 106 | 104
RPMI 5 mM glucose + 10% FBS, 0.00702 µM | 113 | 99.9 | 100
RPMI 5 mM glucose + 10% FBS, 0.0211 µM | 121 | 87 | 95.3
RPMI 5 mM glucose + 10% FBS, 0.0632 µM | 98.5 | 107 | 120
RPMI 5 mM glucose + 10% FBS, 0.19 µM | 113 | 111 | 108
RPMI 5 mM glucose + 10% FBS, 0.569 µM | 120 | 113 | 104
RPMI 5 mM glucose + 10% FBS, 1.71 µM | 105 | 124 | 102
RPMI 5 mM glucose + 10% FBS, 5.12 µM | 110 | 103 | 98.2
RPMI 5 mM glucose + 10% FBS, 15.4 µM | 93.8 | 105 | 98.4
RPMI 5 mM glucose + 10% FBS, 46.1 µM | 96.4 | 95.3 | 73.7
RPMI 5 mM glucose + 10% dialyzed FBS, 0.000781 µM | 96.6 | 105 | 101
RPMI 5 mM glucose + 10% dialyzed FBS, 0.00234 µM | 107 | 110 | 96.9
RPMI 5 mM glucose + 10% dialyzed FBS, 0.00702 µM | 105 | 126 | 98
RPMI 5 mM glucose + 10% dialyzed FBS, 0.0211 µM | 103 | 78.2 | 84.3
RPMI 5 mM glucose + 10% dialyzed FBS, 0.0632 µM | 100 | 111 | 99.9
RPMI 5 mM glucose + 10% dialyzed FBS, 0.19 µM | 118 | 110 | 94.9
RPMI 5 mM glucose + 10% dialyzed FBS, 0.569 µM | 110 | 115 | 101
RPMI 5 mM glucose + 10% dialyzed FBS, 1.71 µM | 102 | 121 | 99.9
RPMI 5 mM glucose + 10% dialyzed FBS, 5.12 µM | 106 | 110 | 87.6
RPMI 5 mM glucose + 10% dialyzed FBS, 15.4 µM | 93.2 | 105 | 82
RPMI 5 mM glucose + 10% dialyzed FBS, 46.1 µM | 84.7 | 113 | 60.2

AUC of viability dose-response curve
Settings | NOMO1 [4] | P12-Ichikawa [5] | SEM cells [6]
HPLM + 10% dialyzed FBS | 469 | 470 | 455
RPMI 5 mM glucose + 10% FBS | 470 | 462 | 468
RPMI 5 mM glucose + 10% dialyzed FBS | 467 | 465 | 442

COc1ccc(Nc2cc(-c3cnc(N)nc3)nc(N3CCOCC3)n2)cn1
cell viability [%]
Settings | NOMO1 [1] | P12-Ichikawa [2] | SEM cells [3]
HPLM + 10% dialyzed FBS, 0.000781 µM | 105 | 98.7 | 93.8
HPLM + 10% dialyzed FBS, 0.00234 µM | 105 | 101 | 96.7
HPLM + 10% dialyzed FBS, 0.00702 µM | 84.5 | 98.4 | 90.6
HPLM + 10% dialyzed FBS, 0.0211 µM | 97.2 | 102 | 96.8
HPLM + 10% dialyzed FBS, 0.0632 µM | 83.3 | 103 | 99.4
HPLM + 10% dialyzed FBS, 0.19 µM | 87 | 94.9 | 102
HPLM + 10% dialyzed FBS, 0.569 µM | 76.6 | 96.7 | 92.6
HPLM + 10% dialyzed FBS, 1.71 µM | 79.9 | 89.9 | 84.7
HPLM + 10% dialyzed FBS, 5.12 µM | 54.7 | 63.7 | 47.3
HPLM + 10% dialyzed FBS, 15.4 µM | 46.8 | 71.1 | 59.8
HPLM + 10% dialyzed FBS, 46.1 µM | 39.6 | 71.9 | 44.6
RPMI 5 mM glucose + 10% FBS, 0.000781 µM | 82.6 | 89.9 | 104
RPMI 5 mM glucose + 10% FBS, 0.00234 µM | 90.2 | 90.9 | 104
RPMI 5 mM glucose + 10% FBS, 0.00702 µM | 88.2 | 93.9 | 110
RPMI 5 mM glucose + 10% FBS, 0.0211 µM | 84.4 | 90.7 | 115
RPMI 5 mM glucose + 10% FBS, 0.0632 µM | 83.4 | 100 | 120
RPMI 5 mM glucose + 10% FBS, 0.19 µM | 88 | 87.7 | 99.5
RPMI 5 mM glucose + 10% FBS, 0.569 µM | 78.4 | 89.5 | 108
RPMI 5 mM glucose + 10% FBS, 1.71 µM | 84.8 | 79.3 | 99
RPMI 5 mM glucose + 10% FBS, 5.12 µM | 60.5 | 52.2 | 52.8
RPMI 5 mM glucose + 10% FBS, 15.4 µM | 65.4 | 54.1 | 65.6
RPMI 5 mM glucose + 10% FBS, 46.1 µM | 52.7 | 56.6 | 57
RPMI 5 mM glucose + 10% dialyzed FBS, 0.000781 µM | 86.8 | 93.7 | 98.6
RPMI 5 mM glucose + 10% dialyzed FBS, 0.00234 µM | 91.8 | 90.4 | 89.5
RPMI 5 mM glucose + 10% dialyzed FBS, 0.00702 µM | 85.3 | 95.8 | 91
RPMI 5 mM glucose + 10% dialyzed FBS, 0.0211 µM | 88 | 98.7 | 105
RPMI 5 mM glucose + 10% dialyzed FBS, 0.0632 µM | 91.6 | 102 | 97
RPMI 5 mM glucose + 10% dialyzed FBS, 0.19 µM | 76.8 | 98.6 | 80.9
RPMI 5 mM glucose + 10% dialyzed FBS, 0.569 µM | 71.3 | 86.3 | 89.6
RPMI 5 mM glucose + 10% dialyzed FBS, 1.71 µM | 75.1 | 88.1 | 89.7
RPMI 5 mM glucose + 10% dialyzed FBS, 5.12 µM | 56.4 | 50.4 | 43.9
RPMI 5 mM glucose + 10% dialyzed FBS, 15.4 µM | 56.8 | 54.1 | 57.4
RPMI 5 mM glucose + 10% dialyzed FBS, 46.1 µM | 44.5 | 51.7 | 44.5

AUC of viability dose-response curve
Settings | NOMO1 [4] | P12-Ichikawa [5] | SEM cells [6]
HPLM + 10% dialyzed FBS | 373 | 433 | 398
RPMI 5 mM glucose + 10% FBS | 375 | 387 | 418
RPMI 5 mM glucose + 10% dialyzed FBS | 361 | 399 | 389
